Literature values in US12667644B2, “Iodine-infused ultra high molecular weight polyethylene” (Biomet Manufacturing, LLC, priority 2019, dated 2026).

System: microbes

In the case of povidone-iodine, the “minimum concentration required to achieve antimicrobial activity” value is listed as “about 2 ppm”.
